Results from patent publication US4283394A, “Cytotoxic nucleoside-corticosteroid phosphodiesters” (priority 1979, dated 1981).
Like-named read-outs stand apart in the source and are kept apart here.

Legend:
[1] = tested on: mouse leukemia L-1210 cells; assay: Antiproliferative activity in vitro, viability of L-1210 cells in culture; format: cell-based; conditions: for IC50: read-out: Concentration (μM) for 50 percent loss of viability at 72 hours (ED50)
Description: The antiproliferative activity of the conjugates, ara-C, ara-CMP and the steroids was determined by measuring their effects against mouse leukemia L-1210 cells in culture. The assay was performed in test tubes without agitation according to the procedure described by Hong et al. in J. Med. Chem. 16: 139 (1973). After 24, 48 and 72 h, viable cell counts were performed on the cultures which had been incubated with compounds in various concentrations and the concentration of each compound required to produce a 50 percent inhibition of growth (ED50) after 72 h was determined by interpolation using the method described by Tritsch et al. in Cancer Biochem. Biophys. 2: 87 (1977).

[2] = tested on: intracerebrally implanted L-1210; assay: Antitumor activity against intracerebrally (i.c.) implanted L-1210 in mice; format: in vivo; conditions: for Survivors on day 35: groups of 8 mice; for Percent T/C: values as of 35th day
Description: Effects of the conjugate on i.c. implanted L-1210 in mice were also studied. A mouse (C3 D2 F1 /J, female, avg. wt. 20 g) was anesthesized with diethyl ether, the right parietal scalp was washed with 70 percent ethanol, a 27 G 1/2 needle with a guard placed on the outside of the barrel 1.5 mm from the top of the bevel, was inserted through the skull and 1×10^5 cells in 0.05 ml suspension were inoculated into the mouse. The conjugate in 0.9 percent NaCl (0.5 ml) was administered intraperitoneally once daily. Treatment began 24 h after implantation and continued for 5 consecutive days. Control animals received a 0.5 ml injection of saline. Testing was followed as described in the NCI protocol and evaluated by recording the survival time according to the formula appearing in protocol 11.

[3] = tested on: i.p. implanted L-1210 leukemia; assay: Antitumor activity against i.p. implanted L-1210 leukemia in mice; format: in vivo; conditions: for response vs control in vivo at 25 mg/kg / response vs control in vivo at 50 mg/kg / response vs control in vivo at 100 mg/kg: Mus musculus, L1210, ip; for response vs control in vivo at 50 mg/kg: read-out: Percent T/C (mean survival days treated/control × 100), 50 mg/kg/day × 5 i.p.; for response vs control in vivo at 100 mg/kg: read-out: Percent T/C (mean survival days treated/control × 100), 100 mg/kg/day × 5 i.p.
Description: The ascites cell form of L-1210 leukemia, grown in C3 D2 F1 /J female mice (supplied by Jackson Labs) were employed. The assay was performed according to National Cancer Institute (NCI) protocol 1.100 described by R. I. Gerau et al., Cancer Chemother. Rep. (Part 3) 3: (2): 7, 47 (1972) with a slight modification. Intraperitoneal implantation of 1×10^6 cells in 0.5-ml suspension to the control and the treated groups (each group comprised 8 C3 D2 F1 /J female mice, average wt 20 g) was carried out using donor mice (DBA/2Ha, supplied by Roswell Park Memorial Institute) bearing 3 day tumor growths. Compounds were dissolved in 0.9 percent NaCl and a 0.5 ml dose was administered intraperitoneally once daily. Treatment began 24 h after implantation and continued for 5 consecutive days. Control animals received a 0.5 ml injection of saline. Testing was followed as described in the NCI protocol and evaluated by recording the survival time according to the formula appearing in protocol 11.

[4] = tested on: i.p. implanted L1210 leukemia; assay: Comparison of conjugates and ara-C plus steroid combinations, i.p. implanted L1210 leukemic mice; format: in vivo
Description: Each mouse received 1×10^6 cells intraperitoneally. Doses were administered i.p. once daily to groups of 8 mice (avg. wt. 20 g) for 5 consecutive days beginning 24 hours after tumor implantation. In case of the combination, ara-C and the steroid were given at the same molar concentrations present in the conjugates. Mean survival days were calculated by the equation appearing in the NCI protocol; T/C ratios are reported in percent, i.e (treated/control)×100.

[5] = read-out: Percent T/C (mean survival days treated/control × 100), 25 mg/kg/day × 5 i.p.

Structure (SMILES): Nc1ccn([C@@H]2O[C@H](CO)[C@@H](O)[C@@H]2O)c(=O)n1 [Ara-C, 1-β-D-Arabinofuranosylcytosine, reference compound]
- IC50 ([1]; Mus musculus, L1210, 72 h): 0.1 µM
- Mean Survival Days ([2]; 25 mg (102.8 μmol)/kg/day × 5 i.p.): 13.75 days
- Survivors on day 35 ([2]; 25 mg/kg/day × 5 i.p.): 0
- Percent T/C ([2]; 25 mg/kg/day × 5 i.p.): 152.8%
- Percent T/C ([2]; 25 mg/kg/day × 5 i.p., listed as ara-C): 153%
- weight lost by day 14 ([2]; ara-C treated mice): about 5 g
- deaths of treated mice ([2]; ara-C treated mice, by day 14): all but one of them died
- Mean Survival Days, Treated ([3]; 25 mg/kg/day × 5 i.p.): 11.00 days
- Mean Survival Days, Treated ([3]; 50 mg/kg/day × 5 i.p.): 9.63 days
- Percent T/C (mean survival days treated/control × 100) ([3]; 50 mg/kg/day × 5 i.p.): 110%
- response vs control in vivo at 25 mg/kg [3, 5]: 128%
- response vs control in vivo at 50 mg/kg [3]: 110%

Structure (SMILES): Nc1ccn([C@@H]2O[C@H](COP(=O)(O)O)[C@@H](O)[C@@H]2O)c(=O)n1 [Ara-CMP, reference compound]
- IC50 ([1]; Mus musculus, L1210, 72 h): 0.05 µM
- Mean Survival Days, Treated ([3]; 50 mg/kg/day × 5 i.p.): 9.13 days
- Mean Survival Days, Treated ([3]; 100 mg/kg/day × 5 i.p.): 11.00 days
- response vs control in vivo at 50 mg/kg [3]: 104%
- response vs control in vivo at 100 mg/kg [3]: 122%

Structure (SMILES): C[C@]12C[C@H](O)[C@H]3[C@@H](CCC4=CC(=O)CC[C@@]43C)[C@@H]1CC[C@@H]2C(=O)COP(=O)(O)OC[C@H]1O[C@@H](n2ccc(N)nc2=O)[C@@H](O)[C@@H]1O [Corticosterone-p-ara-C]
- Survival Days Mean (Treated) ([4]; 77.0 μmole/kg/day × 5): 26.50 days
- Weight change on Day 8 (g/mouse) ([4]; 77.0 μmole/kg/day × 5): -0.71 g/mouse
- response vs control in vivo at 77 µmol/kg ([4]; Mus musculus, L1210, ip, 77.0 μmole/kg/day × 5, read-out: % T/C): 342%

Structure (SMILES): C[C@]12CCC(=O)C=C1CC[C@@H]1[C@@H]2[C@@H](O)C[C@@]2(C)[C@H]1CC[C@]2(O)C(=O)COP(=O)(O)OC[C@H]1O[C@@H](n2ccc(N)nc2=O)[C@@H](O)[C@@H]1O [Cortisol-p-ara-C (V), 5'-(Cortisol-21-phosphoryl)-1-β-D-arabinofuranosylcytosine]
- antiproliferative activity compared with ara-CMP and ara-C ([1]; 72 h): less active than both ara-CMP and ara-C
- IC50 ([1]; Mus musculus, L1210, 72 h): 0.25 µM
- Survival Days Mean (Treated) ([4]; 75.0 μmole/kg/day × 5): 24.75 days
- Weight change on Day 8 (g/mouse) ([4]; 75.0 μmole/kg/day × 5 (each, for combinations)): +0.09 g/mouse
- response vs control in vivo at 75 µmol/kg ([4]; Mus musculus, L1210, ip, 75.0 μmole/kg/day × 5, read-out: % T/C): 287%
- Mean Survival Days ([2]; 50 mg/kg/day × 5 i.p.): 20.50 days
- body weight lost by day 11 ([2]; 50 mg/kg/day × 5 i.p.): about 4 g
- weight gained over original weight (20 g) by day 20 ([2]; 50 mg/kg/day × 5 i.p.): about 1 g
- Survivors on day 35 ([2]; 50 mg/kg/day × 5 i.p.): 2
- Percent T/C ([2]; 50 mg/kg/day × 5 i.p.): 227.8%
- Percent T/C ([2]; 50 mg/kg/day × 5 i.p., listed as V): 228%
- Mean Survival Days, Treated ([3]; 50 mg/kg/day × 5 i.p.): 24.75 days
- Mean Survival Days, Treated ([3]; 100 mg/kg/day × 5 i.p.): 14.25 days
- response vs control in vivo at 50 mg/kg [3]: 287%
- response vs control in vivo at 100 mg/kg [3]: 154%

Structure (SMILES): C[C@]12CCC(=O)C=C1CC[C@@H]1[C@@H]2C(=O)C[C@@]2(C)[C@H]1CC[C@]2(O)C(=O)COP(=O)(O)OC[C@H]1O[C@@H](n2ccc(N)nc2=O)[C@@H](O)[C@@H]1O [Cortisone-p-ara-C (VI), 5'-(Cortisone-21-phosphoryl)-1-β-D-arabinofuranosylcytosine]
- antiproliferative activity compared with ara-CMP and ara-C ([1]; 72 h): activity comparable to ara-CMP
- IC50 ([1]; Mus musculus, L1210, 72 h): 0.07 µM
- Survival Days Mean (Treated) ([4]; 75.1 μmole/kg/day × 5): 21.43 days
- Weight change on Day 8 (g/mouse) ([4]; 75.1 μmole/kg/day × 5): -0.07 g/mouse
- response vs control in vivo at 75.1 µmol/kg ([4]; Mus musculus, L1210, ip, 75.1 μmole/kg/day × 5, read-out: % T/C): 238%
- Mean Survival Days, Treated ([3]; 50 mg/kg/day × 5 i.p.): 20.14 days
- response vs control in vivo at 50 mg/kg [3]: 224%

Structure (SMILES): C[C@]12CC[C@H]3[C@@H](CCC4=CC(=O)CC[C@@]43C)[C@@H]1CC[C@@H]2C(=O)COP(=O)(O)OC[C@H]1O[C@@H](n2ccc(N)nc2=O)[C@@H](O)[C@@H]1O [DOC-p-ara-C]
- Survival Days Mean (Treated) ([4]; 78.7 μmole/kg/day × 5): 21.38 days
- Weight change on Day 8 (g/mouse) ([4]; 78.7 μmole/kg/day × 5): -0.94 g/mouse
- response vs control in vivo at 78.7 µmol/kg ([4]; Mus musculus, L1210, ip, 78.7 μmole/kg/day × 5, read-out: % T/C): 238%

Structure (SMILES): C[C@@H]1C[C@H]2[C@@H]3CCC4=CC(=O)C=C[C@]4(C)[C@@]3(F)[C@@H](O)C[C@]2(C)[C@@]1(O)C(=O)COP(=O)(O)OC[C@H]1O[C@@H](n2ccc(N)nc2=O)[C@@H](O)[C@@H]1O [DXM-p-ara-C (III), 5'-(Dexamethasone-21-phosphoryl)-1-β-D-arabinofuranosylcytosine]
- antiproliferative activity compared with ara-CMP and ara-C ([1]; 72 h): activity comparable to ara-CMP
- IC50 ([1]; Mus musculus, L1210, 72 h): 0.08 µM
- Survival Days Mean (Treated) ([4]; 36.0 μmole/kg/day × 5): 11.50 days
- Weight change on Day 8 (g/mouse) ([4]; 36.0 μmole/kg/day × 5): -1.03 g/mouse
- Survival Days Mean (Treated) ([4]; 71.7 μmole/kg/day × 5): 13.50 days
- Weight change on Day 8 (g/mouse) ([4]; 71.7 μmole/kg/day × 5): -1.50 g/mouse
- response vs control in vivo at 36 µmol/kg ([4]; Mus musculus, L1210, ip, 36.0 μmole/kg/day × 5, read-out: % T/C): 128%
- response vs control in vivo at 71.7 µmol/kg ([4]; Mus musculus, L1210, ip, 71.7 μmole/kg/day × 5, read-out: % T/C): 150%
- toxicity ([3]; 50 mg (71.7 μmol)/kg/day): showed some toxicity
- Mean Survival Days, Treated ([3]; 50 mg/kg/day × 5 i.p.): 13.50 days
- Percent T/C (mean survival days treated/control × 100) ([3]; 50 mg/kg/day × 5 i.p.): 150%
- response vs control in vivo at 50 mg/kg [3]: 150%

Structure (SMILES): CC12CCC(=O)C=C1CCC1C3CCC(O)(C(=O)COP(=O)(O)OCC4OC(n5ccc(N)nc5=O)C(O)C4O)C3(C)CC(O)C12F (centres unmarked) [Fludrocortisone-p-ara-C]
- Survival Days Mean (Treated) ([4]; 36.46 μmole/kg/day × 5): 14.30 days
- Weight change on Day 8 (g/mouse) ([4]; 36.46 μmole/kg/day × 5): -1.09 g/mouse
- response vs control in vivo at 36.46 µmol/kg ([4]; Mus musculus, L1210, ip, 36.46 μmole/kg/day × 5, read-out: % T/C): 159%

Structure (SMILES): C[C@H]1C[C@@H]2[C@H]([C@@H](O)C[C@@]3(C)[C@H]2CC[C@]3(O)C(=O)COP(=O)(O)OC[C@H]2O[C@H](n3ccc(N)nc3=O)[C@@H](O)[C@@H]2O)[C@@]2(C)C=CC(=O)C=C12 [MePred-p-ara-C (IV), 5'-(6α-Methylprednisolone-21-phosphoryl)-1-α-D-arabinofuranosylcytosine]
- antiproliferative activity compared with ara-CMP and ara-C ([1]; 72 h): activity comparable to ara-CMP
- IC50 ([1]; 72 h): 0.05 µM
- % T/C ([4]; 74.0 μmole/kg/day × 5): 246.8%
- Survival Days Mean (Treated) ([4]; 74.0 μmole/kg/day × 5): 19.13 days
- Survival Days Range ([4]; 74.0 μmole/kg/day × 5): 14 to 24 days
- Weight change on Day 8 (g/mouse) ([4]; 74.0 μmole/kg/day × 5): -1.08 g/mouse

Structure (SMILES): C[C@]12C=CC(=O)C=C1CC[C@@H]1[C@@H]2[C@@H](O)C[C@@]2(C)[C@H]1CC[C@]2(O)C(=O)CO [Prednisolone, 11β,17α,21-trihydroxy-1,4-pregnadiene-3,20-dione, reference compound]
- response vs control in vivo at 25 mg/kg [3, 5]: 133%

Structure (SMILES): C[C@]12C=CC(=O)C=C1CC[C@@H]1[C@@H]2C(=O)C[C@@]2(C)[C@H]1CC[C@]2(O)C(=O)CO [prednisone, 17α,21-dihydroxy-1,4-pregnadiene-3,11,20-trione, reference compound]
- response vs control in vivo at 25 mg/kg ([3]; 25 mg/kg/day × 5 i.p., read-out: Percent T/C (mean survival days treated/control × 100)): 133%
